Columns and labels:
Format in all cases: in vivo
Conditions in all cases: 15 days after application, 2-4 leaf stage, 0.5% v/v Mero, scale 0-100 (percentage of leaf area damaged), average of 4 replicates
[1] = test system: Corn - Inbred, PPO-Transgenic; experiment: Herbicide tolerance evaluation, greenhouse, PPO-transgenic inbred corn expressing HemG PPO H_N90
Experimental: (§1) Plant transformation vectors were constructed for expressing a chloroplast transit peptide operably linked to the PPO H_[…] (SEQ ID NO:1) in transgenic soybean, inbred corn, hybrid corn, and cotton plants, and introduced into seed-derived explants of soybean, inbred and hybrid corn, and cotton, respectively, through Agrobacterium tumefaciens-mediated transformation using standard methods known in the art. The regenerated R0 plants were analyzed to select for events with a single copy insertion for advancement to R1 nursery for R1 seed production. Seeds of the regenerated transgenic plants described above were sown in 12-cm tall plastic pots containing standard soil (14.7% sand, 19.9% clay, 65.4% silt, and 1.8% organic matter). Transgenic cotton and corn seed were sown at a density of one seed per pot, whereas soybean was sown at a density of three seeds per pot. Plants were grown in a greenhouse with 60% relative humidity in a light cycle of 13 hour day and 11 hour night. The temperature was kept at 23° C. during the day and 12° C. at night. Herbicide tolerance of transgenic soybean, inbred corn, hybrid corn, and cotton plants, to herbicidal formulations comprising any of A1 to A3 and A7 was measured by applying respective formulations to plants at the 2-4 leaf stage (corresponding to BBCH 12-14) at dose rates of 100 or 200 g ai/ha. Methylated rapeseed oil (Mero) is used as an adjuvant and added to the spray mix for each herbicide at 0.5% v/v. Plants were visually assessed for herbicide injury at the following time points: 8 days, 15 days, 22 days after application. Unsprayed transgenic plants were used for phenotypic comparison with unsprayed wild-type plants.

[2] = test system: Cotton - Inbred, Conventional; experiment: Herbicide injury rating, greenhouse, conventional cotton
Experimental: (§2) Seeds of the regenerated transgenic plants described above were sown in 12-cm tall plastic pots containing standard soil (14.7% sand, 19.9% clay, 65.4% silt, and 1.8% organic matter). Transgenic cotton and corn seed were sown at a density of one seed per pot, whereas soybean was sown at a density of three seeds per pot. Plants were grown in a greenhouse with 60% relative humidity in a light cycle of 13 hour day and 11 hour night. The temperature was kept at 23° C. during the day and 12° C. at night. Herbicide tolerance of transgenic soybean, inbred corn, hybrid corn, and cotton plants, to herbicidal formulations comprising any of A1 to A3 and A7 was measured by applying respective formulations to plants at the 2-4 leaf stage (corresponding to BBCH 12-14) at dose rates of 100 or 200 g ai/ha. Methylated rapeseed oil (Mero) is used as an adjuvant and added to the spray mix for each herbicide at 0.5% v/v. Plants were visually assessed for herbicide injury at the following time points: 8 days, 15 days, 22 days after application. Unsprayed transgenic plants were used for phenotypic comparison with unsprayed wild-type plants.

[3] = test system: Soybean - Inbred, Conventional; experiment: Herbicide injury rating, greenhouse, conventional soybean
Experimental: as §2

[4] = test system: Corn - Hybrid, Conventional; experiment: Herbicide injury rating, greenhouse, conventional hybrid corn
Experimental: as §2

[5] = test system: Corn - Inbred, Conventional; experiment: Herbicide injury rating, greenhouse, conventional inbred corn
Experimental: as §2

[6] = test system: Cotton - Inbred, PPO-Transgenic; experiment: Herbicide tolerance evaluation, greenhouse, PPO-transgenic cotton expressing HemG PPO H_N90
Experimental: as §1

[7] = test system: Corn - Hybrid, PPO-Transgenic; experiment: Herbicide tolerance evaluation, greenhouse, PPO-transgenic hybrid corn expressing HemG PPO H_N90
Experimental: as §1

[8] = test system: Soybean - Inbred, PPO-Transgenic; experiment: Herbicide tolerance evaluation, greenhouse, PPO-transgenic soybean expressing HemG PPO H_N90
Experimental: as §1

## CCOC(=O)C(C)OC(=O)C1(Oc2cc(-n3c(=O)cc(C(F)(F)F)n(C)c3=O)c(F)cc2Cl)CC1 (stereo not shown) [Compound A1, 1-ethoxy-1-oxopropan-2-yl 1-{2-chloro-4-fluoro-5-[3-methyl-2,6-dioxo-4-(trifluoromethyl)-3,6-dihydropyrimidin-1 (2H)-yl]phenoxy}cyclopropanecarboxylate]
[1]; 100 g ai/ha
  Injury rating, Corn - Inbred PPO-Transgenic: 0
[1]; 200 g ai/ha
  Injury rating, Corn - Inbred PPO-Transgenic: 0
[2]; 100 g ai/ha
  Injury rating, Cotton - Inbred Conventional: 100
[2]; 200 g ai/ha
  Injury rating, Cotton - Inbred Conventional: 100
[3]; 100 g ai/ha
  Injury rating, Soybean - Inbred Conventional: 100
[3]; 200 g ai/ha
  Injury rating, Soybean - Inbred Conventional: 100
[4]; 100 g ai/ha
  Injury rating, Corn - Hybrid Conventional: 100
[4]; 200 g ai/ha
  Injury rating, Corn - Hybrid Conventional: 100
[5]; 100 g ai/ha
  Injury rating, Corn - Inbred Conventional: 100
[5]; 200 g ai/ha
  Injury rating, Corn - Inbred Conventional: 100
[6]; 100 g ai/ha
  Injury rating, Cotton - Inbred PPO-Transgenic: 0
[6]; 200 g ai/ha
  Injury rating, Cotton - Inbred PPO-Transgenic: 0
[7]; 100 g ai/ha
  Injury rating, Corn - Hybrid PPO-Transgenic: 0
[7]; 200 g ai/ha
  Injury rating, Corn - Hybrid PPO-Transgenic: 0
[8]; 100 g ai/ha
  Injury rating, Soybean - Inbred PPO-Transgenic: 0
[8]; 200 g ai/ha
  Injury rating, Soybean - Inbred PPO-Transgenic: 0

## COC(=O)C(C)OC(=O)C1(Oc2cc(-n3c(=O)cc(C(F)(F)F)n(C)c3=O)c(F)cc2Cl)CC1 (stereo not shown) [Compound A3, 1-methoxy-1-oxopropan-2-yl 1-{2-chloro-4-fluoro-5-[3-methyl-2,6-dioxo-4-(trifluoromethyl)-3,6-dihydropyrimidin-1 (2H)-yl]phenoxy}cyclopropanecarboxylate]
[1]; 100 g ai/ha
  Injury rating, Corn - Inbred PPO-Transgenic: 0
[1]; 200 g ai/ha
  Injury rating, Corn - Inbred PPO-Transgenic: 0
[2]; 100 g ai/ha
  Injury rating, Cotton - Inbred Conventional: 100
[2]; 200 g ai/ha
  Injury rating, Cotton - Inbred Conventional: 100
[3]; 100 g ai/ha
  Injury rating, Soybean - Inbred Conventional: 100
[3]; 200 g ai/ha
  Injury rating, Soybean - Inbred Conventional: 100
[4]; 100 g ai/ha
  Injury rating, Corn - Hybrid Conventional: 100
[4]; 200 g ai/ha
  Injury rating, Corn - Hybrid Conventional: 100
[5]; 100 g ai/ha
  Injury rating, Corn - Inbred Conventional: 100
[5]; 200 g ai/ha
  Injury rating, Corn - Inbred Conventional: 100
[6]; 100 g ai/ha
  Injury rating, Cotton - Inbred PPO-Transgenic: 0
[6]; 200 g ai/ha
  Injury rating, Cotton - Inbred PPO-Transgenic: 0
[7]; 100 g ai/ha
  Injury rating, Corn - Hybrid PPO-Transgenic: 0
[7]; 200 g ai/ha
  Injury rating, Corn - Hybrid PPO-Transgenic: 0
[8]; 100 g ai/ha
  Injury rating, Soybean - Inbred PPO-Transgenic: 0
[8]; 200 g ai/ha
  Injury rating, Soybean - Inbred PPO-Transgenic: 0

## CC(OC(=O)C1(Oc2cc(-n3c(=O)cc(C(F)(F)F)n(C)c3=O)c(F)cc2Cl)CC1)C(=O)O (stereo not shown) [Compound A2, 2-{[(1-{2-chloro-4-fluoro-5-[3-methyl-2,6-dioxo-4-(trifluoromethyl)-3,6-dihydropyrimidin-1 (2H)-yl]phenoxy}cyclopropyl)carbonyl]oxy}propanoic acid]
[1]; 100 g ai/ha
  Injury rating, Corn - Inbred PPO-Transgenic: 0
[1]; 200 g ai/ha
  Injury rating, Corn - Inbred PPO-Transgenic: 0
[2]; 100 g ai/ha
  Injury rating, Cotton - Inbred Conventional: 100
[2]; 200 g ai/ha
  Injury rating, Cotton - Inbred Conventional: 100
[3]; 100 g ai/ha
  Injury rating, Soybean - Inbred Conventional: 100
[3]; 200 g ai/ha
  Injury rating, Soybean - Inbred Conventional: 100
[4]; 100 g ai/ha
  Injury rating, Corn - Hybrid Conventional: 100
[4]; 200 g ai/ha
  Injury rating, Corn - Hybrid Conventional: 100
[5]; 100 g ai/ha
  Injury rating, Corn - Inbred Conventional: 100
[5]; 200 g ai/ha
  Injury rating, Corn - Inbred Conventional: 100
[6]; 100 g ai/ha
  Injury rating, Cotton - Inbred PPO-Transgenic: 0
[6]; 200 g ai/ha
  Injury rating, Cotton - Inbred PPO-Transgenic: 0
[7]; 100 g ai/ha
  Injury rating, Corn - Hybrid PPO-Transgenic: 0
[7]; 200 g ai/ha
  Injury rating, Corn - Hybrid PPO-Transgenic: 0
[8]; 100 g ai/ha
  Injury rating, Soybean - Inbred PPO-Transgenic: 0
[8]; 200 g ai/ha
  Injury rating, Soybean - Inbred PPO-Transgenic: 0

## C=CCOC(=O)C(C)OC(=O)C1(Oc2cc(-n3c(=O)cc(C(F)(F)F)n(C)c3=O)c(F)cc2Cl)CC1 (stereo not shown) [Compound A7, 1-(allyloxy)-1-oxopropan-2-yl 1-{2-chloro-4-fluoro-5-[3-methyl-2,6-dioxo-4-(trifluoromethyl)-3,6-dihydropyrimidin-1 (2H)-yl]phenoxy}cyclopropanecarboxylate.]
[1]; 100 g ai/ha
  Injury rating, Corn - Inbred PPO-Transgenic: 0
[1]; 200 g ai/ha
  Injury rating, Corn - Inbred PPO-Transgenic: 0
[2]; 100 g ai/ha
  Injury rating, Cotton - Inbred Conventional: 100−
[2]; 200 g ai/ha
  Injury rating, Cotton - Inbred Conventional: 100
[3]; 100 g ai/ha
  Injury rating, Soybean - Inbred Conventional: 100
[3]; 200 g ai/ha
  Injury rating, Soybean - Inbred Conventional: 100
[4]; 100 g ai/ha
  Injury rating, Corn - Hybrid Conventional: 100
[4]; 200 g ai/ha
  Injury rating, Corn - Hybrid Conventional: 100
[5]; 100 g ai/ha
  Injury rating, Corn - Inbred Conventional: 100
[5]; 200 g ai/ha
  Injury rating, Corn - Inbred Conventional: 100
[6]; 100 g ai/ha
  Injury rating, Cotton - Inbred PPO-Transgenic: 0
[6]; 200 g ai/ha
  Injury rating, Cotton - Inbred PPO-Transgenic: 0
[7]; 100 g ai/ha
  Injury rating, Corn - Hybrid PPO-Transgenic: 0
[7]; 200 g ai/ha
  Injury rating, Corn - Hybrid PPO-Transgenic: 0
[8]; 100 g ai/ha
  Injury rating, Soybean - Inbred PPO-Transgenic: 0
[8]; 200 g ai/ha
  Injury rating, Soybean - Inbred PPO-Transgenic: 0

From patent US20250228243A1, “METHODS AND COMPOSITIONS FOR PPO HERBICIDE TOLERANCE” (Monsanto Technology LLC, priority 2024, published 2025)
